Data: patent US20180371044A1, “PEPTIDOMIMETIC MACROCYCLES” (Aileron Therapeutics, Inc., priority 2015, published 2018)
Where a SMILES comes first, the peptide text is derived from it. Bridges are numbered along the chain shown (N, C = ends). [ ]: non-standard residue; d: D form. NMeY = CN[C@@H](Cc1ccc(O)cc1)C(=O)O; R8 = C=CCCCCCC[C@@](C)(N)C(=O)O; S5 = C=CCCC[C@](C)(N)C(=O)O; Nle = CCCC[C@H](N)C(=O)O; Aib = CC(C)(N)C(=O)O
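Further: receptor expressed transiently or stably, cells stimulated in serum-free medium, EC50 from a non-linear dose-response fit, maximal response defined by reference GHRH stimulation.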

What follows are compounds tested against T1, human GHRH receptor (hGHRHR) (Homo sapiens, UniProt Q02643) (assay: GHRHR agonism measured by cAMP (HTRF) in human 293 cells expressing hGHRHR). Details: 30 min at RT.
T1 construct: expressed in transfected cells; host or cells: Human 293 cells
T1 sequence (Q02643 23-423): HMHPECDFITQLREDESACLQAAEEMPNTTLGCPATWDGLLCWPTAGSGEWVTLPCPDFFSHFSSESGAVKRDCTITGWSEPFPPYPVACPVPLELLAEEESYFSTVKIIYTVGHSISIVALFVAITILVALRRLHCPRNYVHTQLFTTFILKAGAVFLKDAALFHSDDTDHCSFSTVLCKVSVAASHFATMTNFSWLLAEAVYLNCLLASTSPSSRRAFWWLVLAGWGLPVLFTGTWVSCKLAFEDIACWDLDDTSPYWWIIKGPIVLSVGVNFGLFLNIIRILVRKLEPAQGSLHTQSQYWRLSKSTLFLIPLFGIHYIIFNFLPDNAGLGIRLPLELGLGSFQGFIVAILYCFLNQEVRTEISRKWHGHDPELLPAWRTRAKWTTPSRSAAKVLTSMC
Type: cell-based
With `CCCC[C@H](NC(=O)[C@@H](NC(=O)[C@H](CC(=O)O)NC(=O)[C@H](CCC(N)=O)NC(=O)[C@H](CC(C)C)NC(=O)[C@H](C)NC(=O)[C@]1(C)CCCC=CCCC[C@](C)(NC(=O)[C@H](CCC(N)=O)NC(=O)[C@H](C)NC(=O)[C@H](CC(C)C)NC(=O)[C@@H](NC(=O)[C@H](CCCCN)NC(=O)[C@H](CCCNC(=N)N)NC(=O)[C@H](Cc2ccc(O)cc2)NC(=O)[C@H](CO)NC(=O)[C@H](C)NC(=O)[C@@H](NC(=O)[C@H](Cc2ccccc2)NC(=O)[C@@H](NC(=O)[C@H](C)NC(=O)[C@H](CC(=O)O)NC(=O)[C@H](C)NC(=O)[C@H](Cc2ccc(O)cc2)NC)[C@@H](C)CC)[C@@H](C)O)C(C)C)C(=O)N[C@@H](CO)C(=O)N[C@@H](C)C(=O)N[C@@H](CCCNC(=N)N)C(=O)N1)[C@@H](C)CC)C(=O)N[C@@H](CO)C(=O)N[C@@H](CCCNC(=N)N)C(N)=O` [SP-15] (H-[NMeY]ADAIFTASYRKVLAQ[S5]SAR[S5]ALQDI[Nle]SR-NH2; staple 17-21) the EC50 was at most 1 nM.
With `CCCC[C@H](NC(=O)[C@H](C)NC(=O)[C@H](CC(=O)O)NC(=O)[C@H](CCC(N)=O)NC(=O)[C@H](CC(C)C)NC(=O)[C@H](C)NC(=O)[C@H](CCCCN)NC(=O)[C@H](CCCNC(=N)N)NC(=O)[C@]1(C)CCCC=CCCCCCC[C@@](C)(NC(=O)[C@H](CCCNC(=N)N)NC(=O)[C@H](Cc2ccc(O)cc2)NC(=O)[C@H](CO)NC(=O)[C@H](C)NC(=O)[C@@H](NC(=O)[C@H](Cc2ccccc2)NC(=O)[C@@H](NC(=O)[C@H](C)NC(=O)[C@H](CC(=O)O)NC(=O)[C@H](C)NC(=O)[C@H](Cc2ccc(O)cc2)NC)[C@@H](C)CC)[C@@H](C)O)C(=O)N[C@@H](C(C)C)C(=O)N[C@@H](CC(C)C)C(=O)N[C@@H](C)C(=O)N[C@@H](CCC(N)=O)C(=O)N[C@@H](CC(C)C)C(=O)N[C@@H](CO)C(=O)N1)C(=O)N[C@@H](CO)C(=O)N[C@@H](CCCNC(=N)N)C(N)=O` [SP-62] (H-[NMeY]ADAIFTASYR[R8]VLAQLS[S5]RKALQDA[Nle]SR-NH2; staple 12-19) the EC50 was 25 to 50 nM.
For `CCCC[C@H](NC(=O)[C@@H](NC(=O)[C@H](CC(=O)O)NC(=O)[C@H](CCC(N)=O)NC(=O)[C@H](CC(C)C)NC(=O)[C@H](C)NC(=O)[C@H](CCCCN)NC(=O)[C@H](CCCNC(=N)N)NC(=O)[C@H](C)NC(=O)[C@H](CO)NC(=O)[C@H](CC(C)C)NC(=O)[C@H](CCC(N)=O)NC(=O)[C@H](C)NC(=O)[C@H](CC(C)C)NC(=O)[C@@H](NC(=O)[C@H](CCCCN)NC(=O)[C@H](CCCNC(=N)N)NC(=O)[C@H](Cc1ccc(O)cc1)NC(=O)[C@H](CO)NC(=O)[C@H](C)NC(=O)[C@@H](NC(=O)[C@H](Cc1ccccc1)NC(=O)[C@@H](NC(=O)[C@H](C)NC(=O)[C@H](CC(=O)O)NC(=O)[C@H](C)NC(=O)[C@H](Cc1ccc(O)cc1)NC)[C@@H](C)CC)[C@@H](C)O)C(C)C)[C@@H](C)CC)C(=O)N[C@@H](CC(=O)O)C(=O)N[C@@H](CCCNC(=N)N)C(N)=O` [SP-45] (H-[NMeY]ADAIFTASYRKVLAQLSARKALQDI[Nle]DR-NH2), the EC50 was at most 1 nM.
`CCCC[C@H](NC(=O)[C@@H](NC(=O)[C@H](CC(=O)O)NC(=O)[C@H](CCC(N)=O)NC(=O)[C@H](CC(C)C)NC(=O)[C@H](C)NC(=O)[C@H](CCCCN)NC(=O)[C@H](CCCNC(=N)N)NC(=O)[C@H](C)NC(=O)[C@H](CO)NC(=O)[C@H](CC(C)C)NC(=O)[C@H](CCC(N)=O)NC(=O)[C@H](C)NC(=O)[C@H](CC(C)C)NC(=O)[C@@H](NC(=O)[C@H](CCCCN)NC(=O)[C@H](CCCNC(=N)N)NC(=O)[C@H](Cc1ccc(O)cc1)NC(=O)[C@H](CO)NC(=O)[C@H](C)NC(=O)[C@@H](NC(=O)[C@H](Cc1ccccc1)NC(=O)[C@@H](NC(=O)[C@H](C)NC(=O)[C@H](CC(=O)O)NC(=O)[C@H](C)NC(=O)[C@H](Cc1ccc(O)cc1)NC(C)=O)[C@@H](C)CC)[C@@H](C)O)C(C)C)[C@@H](C)CC)C(=O)N[C@@H](CO)C(=O)N[C@@H](CCCNC(=N)N)C(N)=O` [SP-40] (Ac-YADAIFTASYRKVLAQLSARKALQDI[Nle]SR-NH2) showed an EC50 of 1 to 10 nM.
Work on `CCCC[C@H](NC(=O)[C@@H](NC(=O)[C@H](CC(=O)O)NC(=O)[C@H](CCC(N)=O)NC(=O)[C@H](CC(C)C)NC(=O)C(C)(C)NC(=O)[C@H](CCCCN)NC(=O)[C@H](CCCNC(=N)N)NC(=O)[C@H](C)NC(=O)[C@H](CO)NC(=O)[C@H](CC(C)C)NC(=O)[C@H](CCC(N)=O)NC(=O)[C@H](C)NC(=O)[C@H](CC(C)C)NC(=O)[C@@H](NC(=O)[C@H](CCCCN)NC(=O)[C@H](CCCNC(=N)N)NC(=O)[C@H](Cc1ccc(O)cc1)NC(=O)[C@H](CO)NC(=O)C(C)(C)NC(=O)[C@@H](NC(=O)[C@H](Cc1ccccc1)NC(=O)[C@@H](NC(=O)[C@H](C)NC(=O)[C@H](CC(=O)O)NC(=O)[C@H](C)NC(=O)[C@H](Cc1ccc(O)cc1)NC)[C@@H](C)CC)[C@@H](C)O)C(C)C)[C@@H](C)CC)C(=O)N[C@@H](CO)C(=O)N[C@@H](CCCNC(=N)N)C(N)=O` [SP-52] (H-[NMeY]ADAIFT[Aib]SYRKVLAQLSARK[Aib]LQDI[Nle]SR-NH2) yielded an EC50 of 1 to 10 nM.
Compound `CCCC[C@H](NC(=O)[C@@H](NC(=O)[C@H](CC(=O)O)NC(=O)[C@H](CCC(N)=O)NC(=O)[C@H](CC(C)C)NC(=O)[C@H](C)NC(=O)[C@H](CCCCN)NC(=O)[C@H](CCCNC(=N)N)NC(=O)[C@]1(C)CCCC=CCCCCCC[C@@](C)(NC(=O)[C@H](CCCNC(=N)N)NC(=O)[C@H](Cc2ccc(O)cc2)NC(=O)[C@H](CO)NC(=O)[C@H](C)NC(=O)[C@@H](NC(=O)[C@H](Cc2ccccc2)NC(=O)[C@@H](NC(=O)[C@H](C)NC(=O)[C@H](CC(=O)O)NC(=O)[C@H](C)NC(=O)[C@H](Cc2ccc(O)cc2)NC)[C@@H](C)CC)[C@@H](C)O)C(=O)N[C@@H](C(C)C)C(=O)N[C@@H](CC(C)C)C(=O)N[C@@H](C)C(=O)N[C@@H](CCC(N)=O)C(=O)N[C@@H](CC(C)C)C(=O)N[C@@H](CO)C(=O)N1)[C@@H](C)CC)C(=O)N[C@@H](CO)C(=O)N[C@@H](CCCNC(=N)N)C(=O)N[C@@H](CCC(=O)O)C(=O)N[C@@H](CCC(=O)O)C(=O)N[C@@H](CCC(=O)O)C(N)=O` [SP-59] (H-[NMeY]ADAIFTASYR[R8]VLAQLS[S5]RKALQDI[Nle]SREEE-NH2; staple 12-19) has an EC50 of 25 to 50 nM.
`CCCC[C@H](NC(=O)[C@@H](NC(=O)[C@H](CC(=O)O)NC(=O)[C@H](CCC(N)=O)NC(=O)[C@H](CC(C)C)NC(=O)[C@]1(C)CCCC=CCCC[C@](C)(NC(=O)[C@H](CC(C)C)NC(=O)[C@H](CCC(N)=O)NC(=O)[C@H](C)NC(=O)[C@H](CC(C)C)NC(=O)[C@@H](NC(=O)[C@H](CCCCN)NC(=O)[C@H](CCCNC(=N)N)NC(=O)[C@H](Cc2ccc(O)cc2)NC(=O)[C@H](CO)NC(=O)[C@H](C)NC(=O)[C@@H](NC(=O)[C@H](Cc2ccccc2)NC(=O)[C@@H](NC(=O)[C@H](C)NC(=O)[C@H](CC(=O)O)NC(=O)[C@H](C)NC(=O)[C@H](Cc2ccc(O)cc2)NC)[C@@H](C)CC)[C@@H](C)O)C(C)C)C(=O)N[C@@H](C)C(=O)N[C@@H](CCCNC(=N)N)C(=O)N[C@@H](CCCCN)C(=O)N1)[C@@H](C)CC)C(=O)N[C@@H](CO)C(=O)N[C@@H](CCCNC(=N)N)C(N)=O` [SP-16] (H-[NMeY]ADAIFTASYRKVLAQL[S5]ARK[S5]LQDI[Nle]SR-NH2; staple 18-22) showed an EC50 of 1 to 10 nM.
